Measurements as given in patent US8247211B2, “Glycopeptide antibiotics” (American Cyanamid Company, priority 2001, dated 2012).
≈ marks a conversion by molar mass, not a printed value.

Assays:
Experiment in all cases: In vitro antibacterial evaluation: minimum inhibitory concentration (MIC), broth dilution method
Assay type in all cases: cell-based
[1] = test system: Enterococcus sp.; conditions: 18 hours at 35° C.
Summary of the method: (§1)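 Following NCCLS approved standard M7-A2, compounds are serially diluted from 64 to 0.06 μg/mL in Muller-Hinton II […] and inoculated at 5×10^5 CFU/mL; the MIC is the minimum concentration at which growth is inhibited.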

[2] = test system: Streptococcus sp.; conditions: 18 hours at 35° C.
Summary of the method: as §1

[3] = test system: Staphylococcus sp.
Summary of the method: as §1

[4] = test system: Escherichia coli; conditions: 18 hours at 35° C.
Summary of the method: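 Using Muller-Hinton II […] and an inoculum of 5×10^5 CFU/mL, antibiotic dilutions from 64 down to 0.06 μg/mL were tested following NCCLS M7-A2. The MIC is the lowest concentration inhibiting growth, including in methicillin-, penicillin- or vancomycin-resistant clinical isolates.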

[5] = broth dilution, inoculum 5×10^5 CFU/mL

**Q.** How did the “MIC Enterococcus avium (GC 4558)” value ([1]; Enterococcus avium (GC 4558)) turn out when `CC(c1ccccc1)C1NC(=O)CNC(=O)C(CO)NC(=O)C(C(O)C2CNC(=N)N2C2OC(CO)C(O)C(O)C2O)NC(=O)C(C(O)C2CNC(=N)N2)NC(=O)C(Cc2ccc(OC3OC(CO)C(OC4OC5COC(c6ccccc6)OC5C(O)C4O)C(O)C3O)c(I)c2)NC1=O` (stereo not drawn) [Example 196, Cyclo[glycyl-β-methylphenylalanyl-O-[4-O-(4,6-O-benzylidenehexopyranosyl)hexopyranosyl]-3-iodotyrosyl-3-(2-iminoimidazolidin-4-yl)seryl-3-(3-hexopyranosyl-2-iminoimidazolidin-4-yl)-serylseryl]] was run?
**A.** 32 µg/mL (≈ 21.2 µM)

**Q.** What about the “MIC Enterococcus faecalis (ATCC 29212)” value ([1]; Enterococcus faecalis (ATCC 29212)) of the same compound?
**A.** >64 µg/mL

**Q.** What about the “MIC Enterococcus faecalis (GC 2242)” value ([1]; Enterococcus faecalis (GC 2242)) of the same compound?
**A.** >64 µg/mL

**Q.** What about the “MIC Enterococcus faecalis (GC 2691)” value ([1]; Enterococcus faecalis (GC 2691)) of the same compound?
**A.** >64 µg/mL

**Q.** What about the “MIC Enterococcus faecalis (GC 3059)” value ([1]; Enterococcus faecalis (GC 3059)) of the same compound?
**A.** >64 µg/mL

**Q.** What about the “MIC Enterococcus faecalis (GC 4552)” value ([1]; Enterococcus faecalis (GC 4552)) of the same compound?
**A.** >64 µg/mL

**Q.** What about the “MIC Enterococcus faecalis (GC 4553)” value ([1]; Enterococcus faecalis (GC 4553)) of the same compound?
**A.** 64 µg/mL (≈ 42.4 µM)

**Q.** What about the “MIC Enterococcus faecalis (GC 4554)” value ([1]; Enterococcus faecalis (GC 4554)) of the same compound?
**A.** >64 µg/mL

**Q.** And the “MIC Enterococcus faecalis (GC 6189)” value ([1]; Enterococcus faecalis (GC 6189))?
**A.** >64 µg/mL

**Q.** What about the “MIC Enterococcus faecium (GC 2243)” value ([1]; Enterococcus faecium (GC 2243)) of the same compound?
**A.** 64 µg/mL (≈ 42.4 µM)

**Q.** And the “MIC Enterococcus faecium (GC 4556)” value ([1]; Enterococcus faecium (GC 4556))?
**A.** >64 µg/mL

**Q.** What about the “MIC Enterococcus faecium (GC 4557)” value ([1]; Enterococcus faecium (GC 4557)) of the same compound?
**A.** 8 µg/mL (≈ 5.3 µM)

**Q.** What about the “MIC Enterococcus avium (GC 4558)” value [1, 5] of the same compound?
**A.** 32 µg/mL (≈ 21.2 µM)

**Q.** What about the “MIC Enterococcus faecalis (ATCC 29212)” value [1, 5] of the same compound?
**A.** >64 µg/mL

**Q.** What about the “MIC Enterococcus faecalis (GC 2242)” value [1, 5] of the same compound?
**A.** >64 µg/mL

**Q.** What about the “MIC Enterococcus faecalis (GC 2691)” value [1, 5] of the same compound?
**A.** >64 µg/mL

**Q.** And the “MIC Enterococcus faecalis (GC 3059)” value [1, 5]?
**A.** >64 µg/mL

**Q.** And the “MIC Enterococcus faecalis (GC 4552)” value [1, 5]?
**A.** >64 µg/mL

**Q.** And the “MIC Enterococcus faecalis (GC 4553)” value [1, 5]?
**A.** 64 µg/mL (≈ 42.4 µM)

**Q.** And the “MIC Enterococcus faecalis (GC 4554)” value [1, 5]?
**A.** >64 µg/mL

**Q.** What about the “MIC Enterococcus faecalis (GC 6189)” value [1, 5] of the same compound?
**A.** >64 µg/mL

**Q.** What about the “MIC Enterococcus faecium (GC 2243)” value [1, 5] of the same compound?
**A.** 64 µg/mL (≈ 42.4 µM)

**Q.** And the “MIC Enterococcus faecium (GC 4556)” value [1, 5]?
**A.** >64 µg/mL

**Q.** And the “MIC Enterococcus faecium (GC 4557)” value [1, 5]?
**A.** 8 µg/mL (≈ 5.3 µM)

**Q.** What about the “MIC Streptococcus agalactiae (GC 4564)” value ([2]; Streptococcus agalactiae (GC 4564)) of the same compound?
**A.** >64 µg/mL

**Q.** What about the “MIC Streptococcus pneumoniae (ATCC 6301)” value ([2]; Streptococcus pneumoniae (ATCC 6301)) of the same compound?
**A.** 64 µg/mL (≈ 42.4 µM)

**Q.** What about the “MIC Streptococcus pneumoniae (GC 1894)” value ([2]; Streptococcus pneumoniae (GC 1894)) of the same compound?
**A.** 64 µg/mL (≈ 42.4 µM)

**Q.** What about the “MIC Streptococcus pneumoniae (GC 4565)” value ([2]; Streptococcus pneumoniae (GC 4565)) of the same compound?
**A.** 64 µg/mL (≈ 42.4 µM)

**Q.** And the “MIC Streptococcus pyogenes (GC 4563)” value ([2]; Streptococcus pyogenes (GC 4563))?
**A.** 32 µg/mL (≈ 21.2 µM)

**Q.** And the “MIC Streptococcus agalactiae (GC 4564)” value [2, 5]?
**A.** >64 µg/mL

**Q.** And the “MIC Streptococcus pneumoniae (ATCC 6301)” value [2, 5]?
**A.** 64 µg/mL (≈ 42.4 µM)

**Q.** And the “MIC Streptococcus pneumoniae (GC 1894)” value [2, 5]?
**A.** 64 µg/mL (≈ 42.4 µM)

**Q.** And the “MIC Streptococcus pneumoniae (GC 4565)” value [2, 5]?
**A.** 64 µg/mL (≈ 42.4 µM)

**Q.** And the “MIC Streptococcus pyogenes (GC 4563)” value [2, 5]?
**A.** 32 µg/mL (≈ 21.2 µM)

**Q.** What about the “MIC Staphylococcus aureus (ATCC 29213)” value ([3]; strain ATCC 29213) of the same compound?
**A.** >64 µg/mL

**Q.** What about the “MIC Staphylococcus aureus (GC 1131)” value ([3]; strain GC 1131) of the same compound?
**A.** >64 µg/mL

**Q.** And the “MIC Staphylococcus aureus (GC 3051)” value ([3]; strain GC 3051)?
**A.** >64 µg/mL

**Q.** What about the “MIC Staphylococcus aureus (GC 3053)” value ([3]; strain GC 3053) of the same compound?
**A.** >64 µg/mL

**Q.** And the “MIC Staphylococcus aureus (GC 4541)” value ([3]; strain GC 4541)?
**A.** 64 µg/mL (≈ 42.4 µM)

**Q.** And the “MIC Staphylococcus aureus (GC 4542)” value ([3]; strain GC 4542)?
**A.** >64 µg/mL

**Q.** And the “MIC Staphylococcus aureus-SMITH (GC 4543)” value ([3]; strain GC 4543)?
**A.** >64 µg/mL

**Q.** What about the “MIC Staphylococcus aureus (GC 4544)” value ([3]; strain GC 4544) of the same compound?
**A.** >64 µg/mL

**Q.** What about the “MIC Staphylococcus aureus (GC 4545)” value ([3]; strain GC 4545) of the same compound?
**A.** 64 µg/mL (≈ 42.4 µM)

**Q.** And the “MIC Staphylococcus haemolyticus (GC 4546)” value ([3]; strain GC 4546)?
**A.** 32 µg/mL (≈ 21.2 µM)

**Q.** What about the “MIC Coagulase Negative Staphylococcus (GC 4547)” value ([3]; strain GC 4547) of the same compound?
**A.** 32 µg/mL (≈ 21.2 µM)

**Q.** And the “MIC Coagulase Negative Staphylococcus (GC 4548)” value ([3]; strain GC 4548)?
**A.** 64 µg/mL (≈ 42.4 µM)

**Q.** And the “MIC Coagulase Negative Staphylococcus (GC 4549)” value ([3]; strain GC 4549)?
**A.** 64 µg/mL (≈ 42.4 µM)

**Q.** What about the “MIC Coagulase Negative Staphylococcus (GC 4551)” value ([3]; strain GC 4551) of the same compound?
**A.** >64 µg/mL

**Q.** And the “MIC Coagulase Negative Staphylococcus (GC 6257)” value ([3]; strain GC 6257)?
**A.** 64 µg/mL (≈ 42.4 µM)

**Q.** And the “MIC Escherichia coli (ATCC 25922)” value ([4]; Escherichia coli (ATCC 25922))?
**A.** 64 µg/mL (≈ 42.4 µM)

**Q.** And the “MIC Escherichia coli (GC 4559)” value ([4]; Escherichia coli (GC 4559))?
**A.** 64 µg/mL (≈ 42.4 µM)

**Q.** And the “MIC Escherichia coli (GC 4560)” value ([4]; Escherichia coli (GC 4560))?
**A.** 8 µg/mL (≈ 5.3 µM)
